This note sets out measurements from ChEMBL document CHEMBL4819018, “Variously substituted 2-oxopyridine derivatives: Extending the structure-activity relationships for allosteric modulation of the cannabinoid CB2 receptor” (Eur J Med Chem, 2021).

In general, EC50 refers to the concentration that produces a half-maximal response. The term Emax denotes the maximal effect, on the per cent scale that the assay sets.

For series [1], the target named is T1, Cannabinoid receptor 2 (Homo sapiens, UniProt P34972). Briefly: Positive allosteric modulator activity at human CB2R expressed in CHO-K1 cell membrane assessed as increase in [3H]CP55940 binding at 100 nM measured after 60 mins by liquid scintillation spectrometry. It counts as cell membranes.
The target in series [2] is T1, Cannabinoid receptor 2. Briefly: Positive allosteric modulator activity at human CB2R expressed in CHO-K1 cell membrane assessed as increase in [3H]CP55940 binding at 10 uM measured after 60 mins by liquid scintillation spectrometry. It counts as cell membranes.
Series [3] addresses T1, Cannabinoid receptor 2. Briefly: Positive allosteric modulator activity at human CB2R expressed in CHO-K1 cells assessed as potentiation of CP55940-stimulated beta-arrestin2 recruitment measured after 90 mins by PathHunter assay. Format: cell-based. (In general: Recruitment of arrestin is a read-out of receptor activation apart from second messengers.)
In series [4] the target is T1, Cannabinoid receptor 2. As to the kind of experiment: Positive allosteric modulator activity at human CB2R expressed in CHO-K1 cells assessed as potentiation of CP55940-stimulated inhibition of forskolin-induced cAMP accumulation measured after 90 mins by HitHunter cAMP assay. Format: functional, cell-based.
Series [5] deals with T1, Cannabinoid receptor 2. As to the kind of experiment: Positive allosteric modulator activity at human CB2R expressed in CHO-K1 cells assessed as potentiation of CP55940-stimulated beta-arrestin2 recruitment measured after 90 mins by PathHunter assay relative to control. It counts as cell-based. Conditions: filed as positive allosteric modulator.
In series [6] the target is T1, Cannabinoid receptor 2. As to the kind of experiment: Positive allosteric modulator activity at human CB2R expressed in CHO-K1 cells assessed as potentiation of CP55940-stimulated inhibition of forskolin-induced cAMP accumulation measured after 90 mins by HitHunter cAMP assay relative to control. It counts as functional, cell-based. Conditions: filed as positive allosteric modulator. (Changes in cAMP serve as a functional read-out for many G protein-coupled receptors.)

Series [7] addresses T1, Cannabinoid receptor 2. As to the kind of experiment: Positive allosteric modulator activity at human CB2R expressed in CHO-K1 cell membrane assessed as increase in [3H]CP55940 binding at 0.001 to 1 microM measured after 60 mins by liquid scintillation spectrometry. Conditions: dose 0.001-1 µM. It counts as cell membranes.
The target in series [8] is T1, Cannabinoid receptor 2. As to the kind of experiment: Inhibition of [35S]GTPgammaS binding at human CB2R expressed in CHO-K1 cell membrane at 0.001 to 10 uM measured after 90 mins by liquid scintillation counting analysis. Format: cell membranes. Conditions: cho-k1, 1.5 h, dose 0.001-10 µM. (In general: GTPγS resists hydrolysis and so accumulates on activated G proteins.)

Series [9] addresses T1, Cannabinoid receptor 2. Briefly: Positive allosteric modulator activity at human CB2R expressed in CHO-K1 cell membrane assessed as CP55940 Emax for [35S]GTPgammaS binding at 1 nM measured after 90 mins by liquid scintillation counting analysis (reference value: 57 +/-1.5%). Format: functional, cell membranes. Conditions: filed as positive allosteric modulator.
The target in series [10] is T1, Cannabinoid receptor 2. Briefly: Stimulation of [35S]GTPgammaS binding at human CB2R expressed in CHO-K1 cell membrane at 0.001 to 10 uM measured after 90 mins by liquid scintillation counting analysis. Format: cell membranes. Conditions: cho-k1, 1.5 h, dose 0.001-10 µM.
A further series has as its target Cannabinoid receptor 1 (Homo sapiens, UniProt P21554). Briefly: Modulation of human CB1R expressed in CHO-K1 cell membrane assessed as effect on [3H]CP55940 binding at 0.001 to 10 uM measured after 60 mins by liquid scintillation spectrometry. Format: cell membranes. Conditions: cho-k1, 1 h, dose 0.001-10 µM.
Series [11] addresses T1, Cannabinoid receptor 2. As to the kind of experiment: Positive allosteric modulator activity at human CB2R expressed in CHO-K1 cell membrane assessed as CP55940 Emax for [35S]GTPgammaS binding at 100 nM measured after 90 mins by liquid scintillation counting analysis (reference value: 57 +/-1.5%). Format: functional, cell membranes. Conditions: filed as positive allosteric modulator.

For series [12], the target named is T1, Cannabinoid receptor 2. As to the kind of experiment: Inverse agonist activity at human CB2R expressed in CHO-K1 cell membrane assessed as decrease in [35S]GTPgammaS binding at 1 to 10 uM measured after 90 mins by liquid scintillation counting analysis. It counts as cell membranes. Conditions: cho-k1, 1.5 h, dose 1-10 µM.
Where [13] appears, read: filed as positive allosteric modulator.

The source made the active and inactive calls. No cut-off for these calls is given here. Bounds are passed on as bounds.

T1 sequence (P34972 whole entry): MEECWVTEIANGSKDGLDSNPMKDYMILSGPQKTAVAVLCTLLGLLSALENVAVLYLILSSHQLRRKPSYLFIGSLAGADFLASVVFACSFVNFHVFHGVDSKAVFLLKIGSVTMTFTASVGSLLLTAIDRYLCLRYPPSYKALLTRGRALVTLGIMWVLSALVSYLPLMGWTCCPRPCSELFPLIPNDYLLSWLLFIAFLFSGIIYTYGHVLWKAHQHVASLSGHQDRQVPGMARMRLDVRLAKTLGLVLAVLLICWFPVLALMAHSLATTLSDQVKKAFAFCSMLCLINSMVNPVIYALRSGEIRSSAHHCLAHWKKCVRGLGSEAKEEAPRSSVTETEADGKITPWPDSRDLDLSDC
Cannabinoid receptor 1, sequence (P21554 whole entry): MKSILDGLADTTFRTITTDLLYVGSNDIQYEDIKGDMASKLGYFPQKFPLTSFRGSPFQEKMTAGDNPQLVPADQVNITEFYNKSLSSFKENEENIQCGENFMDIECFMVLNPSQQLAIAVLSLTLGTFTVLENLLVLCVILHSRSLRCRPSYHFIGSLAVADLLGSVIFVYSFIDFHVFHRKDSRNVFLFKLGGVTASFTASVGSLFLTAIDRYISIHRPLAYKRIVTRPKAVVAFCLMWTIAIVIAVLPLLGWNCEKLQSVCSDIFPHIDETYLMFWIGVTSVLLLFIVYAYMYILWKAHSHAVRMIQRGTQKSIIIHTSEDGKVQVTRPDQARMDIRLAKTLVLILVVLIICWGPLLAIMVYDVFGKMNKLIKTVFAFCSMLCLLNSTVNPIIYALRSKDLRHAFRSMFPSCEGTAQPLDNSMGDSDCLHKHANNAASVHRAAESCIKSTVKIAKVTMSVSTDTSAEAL

As for `Cc1c(Br)cn(Cc2ccc(F)cc2)c(=O)c1NC(=O)OC1CCCCCC1`, the outcome at Cannabinoid receptor 2 [1] was inactive.
Take `Cc1c(Br)cn(Cc2ccc(F)cc2)c(=O)c1[N+](=O)[O-]`: at Cannabinoid receptor 2 [1], the result was inactive.
Consider `Cc1c(Br)cn(Cc2ccc(Br)cc2)c(=O)c1NC(=O)C1CCCCCC1`, for which the outcome on Cannabinoid receptor 2 [2] was inactive. Also, on Cannabinoid receptor 2 [1] (setting [13]), the result was Active.
On to `Cc1c(Br)cn(CCCCCO)c(=O)c1NC(=O)C1CCCCCC1`, for which the result on Cannabinoid receptor 2 [1] was inactive.
As to `Cc1c(Br)cn(Cc2ccc(Cl)cc2)c(=O)c1NC(=O)C1CCCCCC1`, the result on Cannabinoid receptor 2 [1] was inactive.
Take `Cc1c(Br)cn(Cc2ccc(F)cc2)c(=O)c1N`: the result at Cannabinoid receptor 2 [1] was inactive.
Still for that read-out and setting: the result for `Cc1c(Br)cn(Cc2ccccc2)c(=O)c1NC(=O)C1CCCCCC1` reads “inactive”; that for `Cc1c(Br)cn(Cc2cccc(F)c2)c(=O)c1NC(=O)C1CCCCCC1`, “inactive”.
With `Cc1c(Br)cn(Cc2ccc(F)cc2)c(=O)c1NC(=O)C1CCCCCC1`, the EC50 on Cannabinoid receptor 2 [3] came out at 17 nM; at Cannabinoid receptor 2 [4], 3.8 nM. In addition, the Emax at Cannabinoid receptor 2 [5] came out at 79%; at Cannabinoid receptor 2 [6] it was 91%.
For the compound `CCCCCC(=O)Nc1c(C)c(Br)cn(Cc2ccc(F)cc2)c1=O`, the outcome at Cannabinoid receptor 2 [1] was inactive.
With `Cc1c(Br)cn(Cc2ccc(I)cc2)c(=O)c1NC(=O)C1CCCCCC1`, at Cannabinoid receptor 2 [1], the outcome was inactive.
Same read-out and setting: the entry for `Cc1c(Br)cn(CCN2CCOCC2)c(=O)c1NC(=O)C1CCCCCC1` is “inactive”.
On the same count and under the same terms, the result for `CC(=O)Nc1c(C)c(Br)cn(Cc2ccc(F)cc2)c1=O` reads “inactive”.
On the same count and under the same terms, the result for `Cc1c(Br)cn(Cc2ccc(F)cc2)c(=O)c1NC(=O)C1CCC(C)CC1` (centres undefined) reads “inactive”.
For `Cc1c(Br)cn(Cc2ccc(F)cc2)c(=O)c1NC(=O)NC1CCCCCC1`, the result on Cannabinoid receptor 2 [1] was inactive.
The same measure, in the same setting: the result for `CCCCCn1cc(Br)c(C)c(NC(=O)C2CCCCCC2)c1=O` reads “inactive”.
For the compound `Cc1c(Br)cn(Cc2ccccc2Cl)c(=O)c1NC(=O)C1CCCCCC1`, the Activity at Cannabinoid receptor 2 [7] (setting [13]) is 40%; at Cannabinoid receptor 2 [10] it was “Not Active”; at Cannabinoid receptor 1, “Not Active”. The EC50 turned out to be 150 nM on Cannabinoid receptor 2 [3] and 15 nM on Cannabinoid receptor 2 [4]. The “inhibition (INH)” value at Cannabinoid receptor 2 [8] is recorded as “Not Active”. For the same compound, the Emax at Cannabinoid receptor 2 [9] was 73%; on Cannabinoid receptor 2 [11], 67%; at Cannabinoid receptor 2 [5] it was 75%; on Cannabinoid receptor 2 [6] it was 101%. In addition, the outcome at Cannabinoid receptor 2 [2] was inactive. Moreover, the result on Cannabinoid receptor 2 [1] (setting [13]) was Active.
As for `Cc1c(Br)cn(Cc2ccccc2F)c(=O)c1NC(=O)C1CCCCCC1`, the Activity was 20% on Cannabinoid receptor 2 [7], “Active” on Cannabinoid receptor 2 [12] and “Not Active” at Cannabinoid receptor 1. Besides, the EC50 at Cannabinoid receptor 2 [3] and at Cannabinoid receptor 2 [4] was above 10000 nM in each case. For the same compound, the Emax is 51% on Cannabinoid receptor 2 [9], 72% on Cannabinoid receptor 2 [11], 51% at Cannabinoid receptor 2 [5] and 120% at Cannabinoid receptor 2 [6]. For the same compound, the outcome at Cannabinoid receptor 2 [2] was inactive. At Cannabinoid receptor 2 [1] (setting [13]), the outcome was Active.
With `Cc1c(Br)cn(Cc2ccc(F)cc2)c(=O)c1NC(=O)c1ccccc1`, the result on Cannabinoid receptor 2 [1] was inactive.
